Results reported in patent US20230295285A1, “METHODS OF REVERSING CACHEXIA AND PROLONGING SURVIVAL COMPRISING ADMINISTERING A GDF15 MODULATOR AND AN ANTI-CANCER AGENT” (AVEO Pharmaceuticals, Inc., priority 2014, published 2023).
Read-outs that look alike come from different tables or passages of the source.

Columns and labels:
Assay type in all cases: in vivo
GDF15 [1] = biological target: T1, GDF15 (Mus musculus, UniProt Q9Z0J7); settings: ICR-Scid mice
T1 construct: Naive non-tumor-bearing, 8-week old, female, ICR-Scid mice; from tissue; host or cells: whole animal: ICR-Scid mice (endogenous circulating GDF15)
T1 sequence (Q9Z0J7 189-303): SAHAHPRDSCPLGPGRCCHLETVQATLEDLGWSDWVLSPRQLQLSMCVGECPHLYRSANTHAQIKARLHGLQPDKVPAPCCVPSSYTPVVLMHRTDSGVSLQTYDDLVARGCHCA
Method: Naive non-tumor-bearing, 8-week old, female, ICR-Scid mice were treated with carboplatin (60 mpk) by intra-peritoneal injection on Day 0 and Day 3 of this experiment. On Day 2, after mice experience 8% body weight loss, mice were randomized into two groups of ten mice each. One group received carboplatin (60 mpk) plus (1) vehicle or carboplatin (60 mpk) plus (2) rabbit monoclonal antibody raised against murine anti-GDF15 antibody, R-23 (20 mpk) by intra-peritoneal injection on Day 2 and Day 4. In the absence of GDF15 inhibition, 80% of the mice died due to cachexia caused by the carboplatin agent over a period of 8 days.

GDF15 [2] = biological target: T1, GDF15; settings: non-tumor-bearing ICR-Scid mice; cisplatin 3 mpk i.p. twice a week + vehicle; over 9 days
Method: Naive non-tumor-bearing, 8-week old, female, ICR-Scid mice were treated with cisplatin (3 mpk) twice a week by intra-peritoneal injection. Body weight was measured daily. After 2 doses of cisplatin (day 0 of the experiment) mice were randomized into two groups of ten mice each. One group received cisplatin 3 mpk plus (1) vehicle; or cisplatin 3 mpk with (2) rabbit monoclonal antibody raised against murine anti-GDF15 antibody, R-23 twice a week (20 mpk) by intra-peritoneal injection. In the absence of GDF15 inhibition, 80% of the mice die due to cachexia caused by the cisplatin agent over a period of 9 days.

GDF15 [3] = biological target: T1, GDF15; settings: ICR-Scid mice; remark: listed apart in the source
Method: Naive non-tumor-bearing, 8-week old, female, ICR-Scid mice were treated daily with oxaliplatin (3 mpk) by intra-peritoneal injection. On Day 3, after mice experience 8% body weight loss, mice were randomized into two groups of ten mice each. One group received oxaliplatin (3 mpk) plus (1) vehicle; or oxaliplatin (3 mpk) plus (2) rabbit monoclonal antibody raised against murine anti-GDF15 antibody, R-23 (20 mpk). Antibody or vehicle was dosed on Day 3, 5, 7, 9 by intra-peritoneal injection. In the absence of GDF15 inhibition, 45% of the mice die due to cachexia caused by the oxaliplatin agent over a period of 10 days.

GDF15 [4] = assay: Survival and cachexia in mice bearing LNCaP prostate xenograft, anti-GDF15 antibody plus tivozanib; settings: LNCaP xenograft NCR Nude mice
Method: LNCaP cells were grown in culture at 37° C. in an atmosphere containing 5% CO2, using RPMI-1640 Medium (ATCC® 30-2001™) containing 10% FBS. Cells were inoculated subcutaneously into the flank of 8-week old female NCR Nude mice with 5×10^6 cells per mouse in 50% matrigel. When tumor size reached 500 mm^3, the mice were randomized into three groups of ten mice each. Each group received one of the following treatments: (1) murine immunoglobulin G (20 mpk) and vehicle (Control); (2) murine anti-GDF15 antibody 14F11 (20 mpk) and tivozanib (5 mpk); or (3) murine immunoglobulin G (20 mpk) and tivozanib (5 mpk). Antibodies were administered every 3 days by intra-peritoneal injection, tivozanib and vehicle control was administered daily by oral gavage. Body weight and tumor size were measured daily. Mice were evaluated daily and if any of the following criteria were achieved, animals were sacrificed: a) tumor size larger than 2,000 mm^3; b) body weight loss greater than 20%; c) moribund.
In the absence of GDF15 inhibition, 70% of the mice die due to cachexia over a period of 30 days, even in the presence of anti-cancer treatment.

In the case of `N.N.O=C([O-])C1(C(=O)[O-])CCC1.[Pt+2]` [carboplatin], the “mice died due to cachexia caused by carboplatin” value (GDF15 [1]; carboplatin 60 mpk i.p. Day 0 and Day 3 + vehicle, over 8 days) is reported as 80% and the body weight loss (GDF15 [1]; carboplatin 60 mpk i.p., on Day 2, before randomization) is reported as 8%.

For `N.N.[Cl][Pt][Cl]` [cisplatin], the “mice die due to cachexia caused by cisplatin” value (GDF15 [2]) was 80%.

In the case of `O=C1[O][Pt]2([NH][C@@H]3CCCC[C@H]3[NH]2)[O]C1=O` [oxaliplatin], the “mice die due to cachexia caused by oxaliplatin” value (GDF15 [3]; oxaliplatin 3 mpk i.p. daily + vehicle, over 10 days) is reported as 45% and the body weight loss (GDF15 [3]; oxaliplatin 3 mpk i.p. daily, on Day 3, before randomization) is reported as 8%.

In the case of `COc1cc2nccc(Oc3ccc(NC(=O)Nc4cc(C)on4)c(Cl)c3)c2cc1OC` [tivozanib], the “effect on tumor growth” value (GDF15 [4]; tivozanib 5 mpk daily oral) is reported as “slows down tumor growth” and the “mice die due to cachexia” value (GDF15 [4]; tivozanib 5 mpk daily oral gavage + murine IgG 20 mpk, absence of GDF15 inhibition, over 30 days) is reported as 70%.

B1: 14F11: murine anti-GDF15 antibody; light chain SEQ ID NO: 34, heavy chain SEQ ID NO: 53 (antibody)
heavy: QVTLKESGPGILQPSQTLSLTCSFSGFSLSTYGMGVGWIRQPSGKGLEWLADIWWDDDKYYNPSLKSRLTISKDTSSNEVFLKIAIVDTADTATYYCARRGHYSAMDYWGQGTSVTVSSAKTTPPSVYPLAPGSAAQTNSMVTLGCLVKGYFPEPVTVTWNSGSLSSGVHTFPAVLQSDLYTLSSSVTVPSSTWPSETVTCNVAHPASSTKVDKKIVPRDCGCKPCICTVPEVSSVFIFPPKPKDVLTITLTPKVTCVVVDISKDDPEVQFSWFVDDVEVHTAQTQPREEQFNSTFRSVSELPIMHQDWLNGKEFKCRVNSAAFPAPIEKTISKTKGRPKAPQVYTIPPPKEQMAKDKVSLTCMITDFFPEDITVEWQWNGQPAENYKNTQPIMDTDGSYFVYSKLNVQKSNWEAGNTFTCSVLHEGLHNHHTEKSLSHSPGK
light: DIVMTQSQKFMSTSVGDRVSVTCKASQNVGTNVAWYQQKPGQSPKALIYSPSYRYSGVPDRFTGSGSGTDFTLTISNVQSEDLAEYFCQQYNSYPHTFGGGTKLEMKRADAAPTVSIFPPSSEQLTSGGASVVCFLNNFYPKDINVKWKIDGSERQNGVLNSWTDQDSKDSTYSMSSTLTLTKDEYERHNSYTCEATHKTSTSPIVKSFNRNEC
With B1 the anti-tumor effect (GDF15 [4]; 14F11 20 mpk + tivozanib 5 mpk, 30 day period) was “effective anti-tumor treatment”, the effect on cachexia (GDF15 [4]; 14F11 20 mpk + tivozanib 5 mpk, 30 days) was “reverses cachexia” and the sustained survival (GDF15 [4]; 14F11 20 mpk i.p. every 3 days + tivozanib 5 mpk daily oral, over 30 day period, FIG. 1) was 100%.
